In ChEMBL document CHEMBL4028801, “A multifactorial approach to hepatobiliary transporter assessment enables improved therapeutic compound development” (Toxicol Sci, 2013):
Structures can show the parent of a compound that is named as a salt.

Legend:
Bile salt export pump = Bile salt export pump (Homo sapiens, UniProt O95342); experiment: Inhibition of human BSEP overexpressed in Sf9 cell membrane vesicles assessed as uptake of [3H]-taurocholate in presence of ATP measured after 15 to 20 mins by membrane vesicle transport assay; type: ADME, cell-based
Bile salt export pump, sequence (O95342 whole entry): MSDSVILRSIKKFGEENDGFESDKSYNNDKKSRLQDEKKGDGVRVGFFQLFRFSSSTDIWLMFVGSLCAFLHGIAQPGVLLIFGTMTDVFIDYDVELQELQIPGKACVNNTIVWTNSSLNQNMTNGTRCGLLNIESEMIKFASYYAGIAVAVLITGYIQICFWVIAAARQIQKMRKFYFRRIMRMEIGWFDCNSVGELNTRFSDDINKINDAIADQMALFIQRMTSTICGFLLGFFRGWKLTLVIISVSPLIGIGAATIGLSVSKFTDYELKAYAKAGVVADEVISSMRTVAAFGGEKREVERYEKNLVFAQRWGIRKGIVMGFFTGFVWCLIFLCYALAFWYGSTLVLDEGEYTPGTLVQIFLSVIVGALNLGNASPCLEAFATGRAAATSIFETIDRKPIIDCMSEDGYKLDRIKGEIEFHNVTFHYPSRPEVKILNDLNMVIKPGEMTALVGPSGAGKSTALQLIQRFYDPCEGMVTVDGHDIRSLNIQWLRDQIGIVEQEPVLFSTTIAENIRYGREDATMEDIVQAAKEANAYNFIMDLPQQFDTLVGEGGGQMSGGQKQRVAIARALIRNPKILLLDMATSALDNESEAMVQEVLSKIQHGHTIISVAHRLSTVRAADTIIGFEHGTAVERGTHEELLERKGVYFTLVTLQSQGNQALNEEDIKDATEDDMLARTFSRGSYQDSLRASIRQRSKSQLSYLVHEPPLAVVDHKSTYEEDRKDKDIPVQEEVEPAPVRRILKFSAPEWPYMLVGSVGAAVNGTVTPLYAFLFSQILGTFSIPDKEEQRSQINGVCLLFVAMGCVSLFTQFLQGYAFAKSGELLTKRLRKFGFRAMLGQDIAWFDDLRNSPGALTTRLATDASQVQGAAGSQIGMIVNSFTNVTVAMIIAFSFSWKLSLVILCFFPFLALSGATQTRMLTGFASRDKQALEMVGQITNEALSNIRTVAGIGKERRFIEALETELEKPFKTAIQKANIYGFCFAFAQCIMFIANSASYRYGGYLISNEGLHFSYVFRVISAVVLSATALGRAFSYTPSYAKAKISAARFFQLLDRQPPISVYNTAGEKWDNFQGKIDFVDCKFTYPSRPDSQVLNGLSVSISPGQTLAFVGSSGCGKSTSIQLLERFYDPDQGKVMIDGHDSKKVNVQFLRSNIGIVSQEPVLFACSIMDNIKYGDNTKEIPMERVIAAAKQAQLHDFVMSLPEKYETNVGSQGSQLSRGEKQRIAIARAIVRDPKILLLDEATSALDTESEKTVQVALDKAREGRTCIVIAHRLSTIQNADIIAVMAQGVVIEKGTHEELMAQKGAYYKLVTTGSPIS

[1] = biological target: ATP-binding cassette sub-family C member 2 (Homo sapiens, UniProt Q92887); experiment: Inhibition of human MRP2 overexpressed in Sf9 cell membrane vesicles assessed as uptake of [3H]-estradiol-17beta-D-glucuronide in presence of ATP and GSH measured after 20 mins by membrane vesicle transport assay
ATP-binding cassette sub-family C member 2, sequence (Q92887 whole entry): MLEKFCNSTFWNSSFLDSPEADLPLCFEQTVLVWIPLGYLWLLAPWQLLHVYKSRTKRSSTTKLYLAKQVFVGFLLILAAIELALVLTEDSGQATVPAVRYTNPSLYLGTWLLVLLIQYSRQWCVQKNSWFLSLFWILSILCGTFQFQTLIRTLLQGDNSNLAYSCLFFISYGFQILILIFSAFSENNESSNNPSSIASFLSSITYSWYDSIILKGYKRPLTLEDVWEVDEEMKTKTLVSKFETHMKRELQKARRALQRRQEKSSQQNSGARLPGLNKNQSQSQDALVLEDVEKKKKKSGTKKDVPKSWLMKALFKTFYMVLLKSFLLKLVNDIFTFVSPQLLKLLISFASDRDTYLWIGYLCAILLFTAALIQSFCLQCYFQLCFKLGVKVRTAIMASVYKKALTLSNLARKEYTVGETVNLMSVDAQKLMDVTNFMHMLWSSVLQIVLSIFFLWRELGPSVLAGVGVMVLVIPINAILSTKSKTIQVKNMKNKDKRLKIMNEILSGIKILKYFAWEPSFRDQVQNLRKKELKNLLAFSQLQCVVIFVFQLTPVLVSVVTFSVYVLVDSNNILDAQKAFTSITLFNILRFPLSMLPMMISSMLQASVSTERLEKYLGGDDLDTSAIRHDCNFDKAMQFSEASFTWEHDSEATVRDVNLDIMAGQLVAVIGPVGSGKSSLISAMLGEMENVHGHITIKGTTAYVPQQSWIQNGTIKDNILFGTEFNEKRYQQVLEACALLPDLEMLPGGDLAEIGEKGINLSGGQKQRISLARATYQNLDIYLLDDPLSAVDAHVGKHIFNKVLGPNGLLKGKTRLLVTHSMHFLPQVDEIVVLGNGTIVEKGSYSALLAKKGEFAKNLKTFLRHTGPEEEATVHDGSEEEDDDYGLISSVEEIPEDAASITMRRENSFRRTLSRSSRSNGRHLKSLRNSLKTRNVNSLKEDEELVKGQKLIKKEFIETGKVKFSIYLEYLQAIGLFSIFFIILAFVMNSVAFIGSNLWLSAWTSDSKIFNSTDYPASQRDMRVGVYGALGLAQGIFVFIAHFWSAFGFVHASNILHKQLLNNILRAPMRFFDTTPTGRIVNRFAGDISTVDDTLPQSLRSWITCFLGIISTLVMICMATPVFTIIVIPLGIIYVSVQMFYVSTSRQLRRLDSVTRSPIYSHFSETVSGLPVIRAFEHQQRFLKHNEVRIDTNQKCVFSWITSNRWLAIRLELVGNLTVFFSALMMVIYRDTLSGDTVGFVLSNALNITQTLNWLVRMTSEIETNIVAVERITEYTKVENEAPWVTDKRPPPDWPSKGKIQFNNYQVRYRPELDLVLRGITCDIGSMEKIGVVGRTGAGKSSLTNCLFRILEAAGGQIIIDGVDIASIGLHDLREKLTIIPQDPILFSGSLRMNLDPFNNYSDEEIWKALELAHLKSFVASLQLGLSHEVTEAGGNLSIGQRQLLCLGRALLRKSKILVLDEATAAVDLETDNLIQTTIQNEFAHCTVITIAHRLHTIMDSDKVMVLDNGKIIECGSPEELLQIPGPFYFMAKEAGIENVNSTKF

[2] = biological target: ATP-binding cassette sub-family C member 3 (Homo sapiens, UniProt O15438); experiment: Inhibition of human MRP3 overexpressed in Sf9 insect cell membrane vesicles assessed as uptake of [3H]-estradiol-17beta-D-glucuronide in presence of ATP and GSH measured after 10 mins by membrane vesicle transport assay; type: ADME, cell-based
ATP-binding cassette sub-family C member 3, sequence (O15438 whole entry): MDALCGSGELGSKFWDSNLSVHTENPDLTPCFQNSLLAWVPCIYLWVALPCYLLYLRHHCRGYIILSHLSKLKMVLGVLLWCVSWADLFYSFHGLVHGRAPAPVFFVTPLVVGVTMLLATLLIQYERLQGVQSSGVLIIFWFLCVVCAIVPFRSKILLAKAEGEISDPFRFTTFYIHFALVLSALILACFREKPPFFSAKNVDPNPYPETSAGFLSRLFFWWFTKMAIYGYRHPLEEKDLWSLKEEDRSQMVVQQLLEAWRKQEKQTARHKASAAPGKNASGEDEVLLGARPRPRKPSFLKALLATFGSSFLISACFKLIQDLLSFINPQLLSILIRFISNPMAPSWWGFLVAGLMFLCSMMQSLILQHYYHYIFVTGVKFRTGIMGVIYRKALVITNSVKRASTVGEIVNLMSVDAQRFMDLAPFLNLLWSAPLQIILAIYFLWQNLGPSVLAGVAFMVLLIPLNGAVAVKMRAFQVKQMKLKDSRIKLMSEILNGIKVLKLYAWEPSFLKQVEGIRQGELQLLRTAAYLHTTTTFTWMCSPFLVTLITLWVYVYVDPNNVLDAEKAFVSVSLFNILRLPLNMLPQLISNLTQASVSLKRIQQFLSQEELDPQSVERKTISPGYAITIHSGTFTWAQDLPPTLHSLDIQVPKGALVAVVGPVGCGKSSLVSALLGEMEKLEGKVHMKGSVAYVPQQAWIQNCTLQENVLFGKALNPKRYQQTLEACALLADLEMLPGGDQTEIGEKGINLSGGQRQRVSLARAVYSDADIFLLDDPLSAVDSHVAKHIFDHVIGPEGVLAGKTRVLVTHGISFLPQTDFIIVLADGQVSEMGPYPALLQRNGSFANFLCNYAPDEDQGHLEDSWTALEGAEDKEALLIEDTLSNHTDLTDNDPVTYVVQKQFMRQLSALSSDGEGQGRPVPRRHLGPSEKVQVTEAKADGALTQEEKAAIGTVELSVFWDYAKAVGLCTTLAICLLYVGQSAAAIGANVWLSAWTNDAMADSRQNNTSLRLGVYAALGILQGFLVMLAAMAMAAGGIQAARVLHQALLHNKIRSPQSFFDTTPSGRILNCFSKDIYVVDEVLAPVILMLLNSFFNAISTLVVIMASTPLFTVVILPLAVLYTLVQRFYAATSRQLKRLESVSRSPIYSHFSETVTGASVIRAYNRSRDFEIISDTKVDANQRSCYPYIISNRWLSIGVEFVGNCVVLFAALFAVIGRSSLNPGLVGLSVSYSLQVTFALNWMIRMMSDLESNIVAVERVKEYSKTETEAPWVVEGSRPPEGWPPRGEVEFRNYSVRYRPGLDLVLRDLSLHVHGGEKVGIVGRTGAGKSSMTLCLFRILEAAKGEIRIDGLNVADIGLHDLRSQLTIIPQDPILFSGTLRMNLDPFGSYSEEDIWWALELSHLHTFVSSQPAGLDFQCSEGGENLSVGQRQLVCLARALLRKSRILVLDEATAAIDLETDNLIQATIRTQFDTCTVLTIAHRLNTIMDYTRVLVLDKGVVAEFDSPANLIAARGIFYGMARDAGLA

[3] = biological target: T1, ATP-binding cassette sub-family C member 4 (Homo sapiens, UniProt O15439); experiment: Inhibition of human MRP4 overexpressed in Sf9 cell membrane vesicles assessed as uptake of [3H]-estradiol-17beta-D-glucuronide in presence of ATP and GSH measured after 20 mins by membrane vesicle transport assay; type: ADME, cell-based
T1 sequence (O15439 whole entry): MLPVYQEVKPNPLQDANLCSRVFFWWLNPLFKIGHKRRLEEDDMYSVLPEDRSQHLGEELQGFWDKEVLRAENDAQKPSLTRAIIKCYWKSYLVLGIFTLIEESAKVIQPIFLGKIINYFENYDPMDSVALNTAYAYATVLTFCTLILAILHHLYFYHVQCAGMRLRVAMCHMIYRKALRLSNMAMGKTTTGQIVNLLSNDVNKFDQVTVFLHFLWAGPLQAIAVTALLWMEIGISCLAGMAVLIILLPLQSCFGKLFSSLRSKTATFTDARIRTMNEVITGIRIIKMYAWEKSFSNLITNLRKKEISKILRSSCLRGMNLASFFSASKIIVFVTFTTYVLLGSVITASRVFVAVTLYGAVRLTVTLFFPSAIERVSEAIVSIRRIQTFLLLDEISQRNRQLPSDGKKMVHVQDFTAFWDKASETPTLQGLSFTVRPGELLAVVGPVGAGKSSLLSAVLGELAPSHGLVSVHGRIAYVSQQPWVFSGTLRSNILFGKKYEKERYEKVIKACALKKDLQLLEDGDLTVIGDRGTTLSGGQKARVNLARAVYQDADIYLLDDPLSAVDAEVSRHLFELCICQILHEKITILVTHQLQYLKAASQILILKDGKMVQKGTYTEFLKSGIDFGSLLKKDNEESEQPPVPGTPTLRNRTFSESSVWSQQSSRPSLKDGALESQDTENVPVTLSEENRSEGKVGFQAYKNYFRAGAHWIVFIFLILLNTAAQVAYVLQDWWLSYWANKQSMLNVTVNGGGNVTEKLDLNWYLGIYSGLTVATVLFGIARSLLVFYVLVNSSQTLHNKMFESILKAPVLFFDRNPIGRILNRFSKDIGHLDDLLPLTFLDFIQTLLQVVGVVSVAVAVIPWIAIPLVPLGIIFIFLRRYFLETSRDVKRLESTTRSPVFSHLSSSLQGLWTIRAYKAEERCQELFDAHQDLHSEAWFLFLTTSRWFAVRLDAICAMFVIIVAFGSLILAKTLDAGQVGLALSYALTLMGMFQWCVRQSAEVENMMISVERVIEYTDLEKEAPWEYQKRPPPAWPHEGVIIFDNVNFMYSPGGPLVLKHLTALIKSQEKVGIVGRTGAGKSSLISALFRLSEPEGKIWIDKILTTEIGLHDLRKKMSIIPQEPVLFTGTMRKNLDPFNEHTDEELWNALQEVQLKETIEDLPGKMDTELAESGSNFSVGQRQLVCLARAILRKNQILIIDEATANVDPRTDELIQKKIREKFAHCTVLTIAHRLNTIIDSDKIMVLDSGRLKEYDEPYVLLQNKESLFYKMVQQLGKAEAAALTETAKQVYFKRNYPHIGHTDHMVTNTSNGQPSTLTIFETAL

SMILES	IC50 (Bile salt export pump)	IC50 [1]	IC50 [2]	IC50 [3]
CN1CCN(C2=Nc3cc(Cl)ccc3Nc3ccccc32)CC1 [CLOZAPINE]	> 133 µM	> 133 µM	> 133 µM	> 133 µM
O=P1(N(CCCl)CCCl)NCCCO1 (stereo unspecified) [CYCLOPHOSPHAMIDE ANHYDROUS]	> 133 µM	> 133 µM	> 133 µM	> 133 µM
CN(C)/N=N/c1[nH]cnc1C(N)=O [DACARBAZINE]	> 133 µM	> 133 µM	> 133 µM	> 133 µM
Cn1c(=O)n(-c2ccc(C(C)(C)C#N)cc2)c2c3cc(-c4cnc5ccccc5c4)ccc3ncc21 [DACTOLISIB]	7.9 µM	> 133 µM	> 133 µM	> 133 µM
CCCCCCCCCC(=O)N[C@@H](Cc1c[nH]c2ccccc12)C(=O)N[C@H](CC(N)=O)C(=O)N[C@@H](CC(=O)O)C(=O)N[C@@H]1C(=O)NCC(=O)N[C@@H](CCCN)C(=O)N[C@@H](CC(=O)O)C(=O)N[C@H](C)C(=O)N[C@@H](CC(=O)O)C(=O)NCC(=O)N[C@H](CO)C(=O)N[C@@H]([C@H](C)CC(=O)O)C(=O)N[C@@H](CC(=O)c2ccccc2N)C(=O)O[C@@H]1C [DAPTOMYCIN]	> 133 µM	29.1 µM	> 133 µM	> 133 µM
Nc1ncn([C@H]2C[C@H](O)[C@@H](CO)O2)c(=O)n1 [DECITABINE]	> 133 µM	> 133 µM	> 133 µM	> 133 µM
CNCCCN1c2ccccc2CCc2ccccc21 [DESIPRAMINE]	> 133 µM	> 133 µM	> 133 µM	> 133 µM
NC(=O)CC[C@@H]1NC(=O)[C@H](Cc2ccccc2)NC(=O)[C@H](Cc2ccc(O)cc2)NC(=O)CCSSC[C@@H](C(=O)N2CCC[C@H]2C(=O)N[C@H](CCCN=C(N)N)C(=O)NCC(N)=O)NC(=O)[C@H](CC(N)=O)NC1=O [DESMOPRESSIN ACETATE]	> 133 µM	> 133 µM	> 133 µM	> 133 µM
C[C@@H]1C[C@H]2[C@@H]3CCC4=CC(=O)C=C[C@]4(C)[C@@]3(F)[C@@H](O)C[C@]2(C)[C@@]1(O)C(=O)CO [DEXAMETHASONE]	> 133 µM	> 133 µM	> 133 µM	> 133 µM
CN(C)CC[C@@H](c1ccc(Cl)cc1)c1ccccn1 [DEXCHLORPHENIRAMINE MALEATE]	> 133 µM	> 133 µM	> 133 µM	> 133 µM
Cc1c(OCC(F)(F)F)ccnc1C[S@@+]([O-])c1nc2ccccc2[nH]1 [DEXLANSOPRAZOLE]	> 133 µM	> 133 µM	> 133 µM	> 133 µM
CC(=O)Oc1cccc2c1C(=O)c1c(OC(C)=O)cc(C(=O)O)cc1C2=O [DIACEREIN]	> 133 µM	> 133 µM	> 133 µM	6.4 µM
CC(=O)Nc1c(I)c(NC(C)=O)c(I)c(C(=O)O)c1I [DIATRIZOIC ACID]	> 133 µM	> 133 µM	> 133 µM	> 133 µM
CC1=NS(=O)(=O)c2cc(Cl)ccc2N1 [DIAZOXIDE]	> 133 µM	> 133 µM	> 133 µM	> 133 µM
C[C@H]1O[C@@H](O[C@H]2[C@@H](O)C[C@H](O[C@H]3[C@@H](O)C[C@H](O[C@H]4CC[C@@]5(C)[C@H](CC[C@@H]6[C@@H]5CC[C@]5(C)[C@@H](C7=CC(=O)OC7)CC[C@]65O)C4)O[C@@H]3C)O[C@@H]2C)C[C@H](O)[C@@H]1O [DIGITOXIN]	31 µM	> 133 µM	> 133 µM	> 133 µM
CCCCC[C@H](O)/C=C/[C@@H]1[C@@H](C/C=C\CCCC(=O)O)[C@@H](O)C[C@H]1O [DINOPROST TROMETHAMINE]	[…]	[…]	[…]	7.1 µM
CC(C)N(CCC(C(N)=O)(c1ccccc1)c1ccccn1)C(C)C (stereo unspecified) [DISOPYRAMIDE]	> 133 µM	> 133 µM	> 133 µM	> 133 µM

SMILES	IC50 (Bile salt export pump)	IC50 [1]	IC50 [2]	IC50 [3]
CN(CCOc1ccc(NS(C)(=O)=O)cc1)CCc1ccc(NS(C)(=O)=O)cc1 [DOFETILIDE]	> 133 µM	> 133 µM	> 133 µM	> 133 µM
O=c1[nH]c2ccccc2n1CCCN1CCC(n2c(=O)[nH]c3cc(Cl)ccc32)CC1 [DOMPERIDONE]	> 133 µM	> 133 µM	> 133 µM	> 133 µM
COc1cccc2c1C(=O)c1c(O)c3c(c(O)c1C2=O)C[C@@](O)(C(=O)CO)C[C@@H]3O[C@H]1C[C@H](N)[C@H](O)[C@H](C)O1 [DOXORUBICIN]	> 133 µM	> 133 µM	> 133 µM	19 µM
C[C@H]1c2cccc(O)c2C(=O)C2=C(O)[C@]3(O)C(=O)C(C(N)=O)=C(O)[C@@H](N(C)C)[C@@H]3[C@@H](O)[C@@H]21 [DOXYCYCLINE HYDROCHLORIDE]	> 133 µM	> 133 µM	> 133 µM	> 133 µM
CNCC[C@H](Oc1cccc2ccccc12)c1cccs1 [DULOXETINE HYDROCHLORIDE]	> 133 µM	> 133 µM	> 133 µM	> 133 µM
CC(C)(C)c1ccc(C(=O)CCCN2CCC(OC(c3ccccc3)c3ccccc3)CC2)cc1 [EBASTINE]	> 133 µM	> 133 µM	> 133 µM	> 133 µM
O=C1Nc2ccc(Cl)cc2[C@@](C#CC2CC2)(C(F)(F)F)O1 [EFAVIRENZ]	> 133 µM	> 133 µM	> 133 µM	> 133 µM
NCCCC(N)(C(=O)O)C(F)F (stereo unspecified) [EFLORNITHINE HYDROCHLORIDE]	> 133 µM	> 133 µM	> 133 µM	> 133 µM
CC[C@H]1CN2CCc3cc(OC)c(OC)cc3[C@@H]2C[C@@H]1C[C@H]1NCCc2cc(OC)c(OC)cc21 [EMETINE]	> 133 µM	> 133 µM	> 133 µM	> 133 µM
Nc1nc(=O)n([C@@H]2CS[C@H](CO)O2)cc1F [EMTRICITABINE]	> 133 µM	> 133 µM	> 133 µM	> 133 µM
CCOC(=O)[C@H](CCc1ccccc1)N[C@@H](C)C(=O)N1CCC[C@H]1C(=O)O [ENALAPRIL MALEATE]	> 133 µM	> 133 µM	> 133 µM	> 133 µM
CCn1cc(C(=O)O)c(=O)c2cc(F)c(N3CCNCC3)nc21 [ENOXACIN]	> 133 µM	> 133 µM	> 133 µM	> 133 µM
CSc1ccc(C(=O)c2[nH]c(=O)[nH]c2C)cc1 [ENOXIMONE]	> 133 µM	> 133 µM	> 133 µM	> 133 µM
COc1cccc2c1C(=O)c1c(O)c3c(c(O)c1C2=O)C[C@@](O)(C(=O)CO)C[C@@H]3O[C@H]1C[C@H](N)[C@@H](O)[C@H](C)O1 [EPIRUBICIN HYDROCHLORIDE]	> 133 µM	> 133 µM	> 133 µM	> 133 µM
COC(=O)[C@@H]1CC2=CC(=O)CC[C@]2(C)[C@@]23O[C@@H]2C[C@@]2(C)[C@@H](CC[C@@]24CCC(=O)O4)[C@H]13 [EPLERENONE]	> 133 µM	> 133 µM	> 133 µM	> 133 µM
CCCCc1ncc(/C=C(\Cc2cccs2)C(=O)O)n1Cc1ccc(C(=O)O)cc1 [EPROSARTAN]	> 133 µM	57.9 µM	6.65 µM	> 133 µM
C=C1CC[C@H](O)C/C1=C/C=C1\CCC[C@]2(C)[C@@H]([C@H](C)/C=C/[C@H](C)C(C)C)CC[C@@H]12 [ERGOCALCIFEROL]	75.8 µM	> 133 µM	> 133 µM	> 133 µM
